pIC50: −log10 of the molar value.

Endothelial lipase (EL), sequence (Q9Y5X9 21-500): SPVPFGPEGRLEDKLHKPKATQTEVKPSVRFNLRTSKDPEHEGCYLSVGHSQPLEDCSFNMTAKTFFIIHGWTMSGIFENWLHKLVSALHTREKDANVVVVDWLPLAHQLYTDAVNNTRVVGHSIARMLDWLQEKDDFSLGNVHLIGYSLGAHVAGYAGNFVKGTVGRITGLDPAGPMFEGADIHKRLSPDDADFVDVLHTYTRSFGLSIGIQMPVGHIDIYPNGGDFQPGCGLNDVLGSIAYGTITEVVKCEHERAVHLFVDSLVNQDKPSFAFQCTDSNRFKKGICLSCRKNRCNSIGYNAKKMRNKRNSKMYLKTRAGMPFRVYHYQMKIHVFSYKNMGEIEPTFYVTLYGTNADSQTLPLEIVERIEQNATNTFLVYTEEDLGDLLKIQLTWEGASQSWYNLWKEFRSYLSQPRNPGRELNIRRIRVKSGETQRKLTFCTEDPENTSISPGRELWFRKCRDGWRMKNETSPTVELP

This assay has as its target Endothelial lipase (EL) (Homo sapiens (Human), UniProt Q9Y5X9). Description: Endothelial lipase (EL) enzymatic assay with fluorescent substrate A10070 in DMPG vesicles. It is filed as biochemical. An outline of the steps:
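Substrate A10070 sits in sonicated DMPG vesicles at 0.11 mole fraction. Lipase and compound preincubated 30 min, 37° C, in HEPES pH 8.0 buffer with CaCl2.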
The pIC50 is the IC50 on a negative log10 scale, so that one unit is a factor of ten. Read a low pIC50 as a large IC50. Consider `COCCS(=O)(=O)C(C(=O)NCC(=O)NC1CC1)c1nc2cc(F)c(-c3ccc(C(=O)N4CCOCC4)cc3)cc2s1` (centres unmarked) [Example 161, N-[(cyclopropyl-carbamoyl)methyl]-2-{5-fluoro-6-[4-(morpholine-4-carbonyl)phenyl]-1,3-benzothiazol-2-yl}-2-(2-methoxyethane-sulfonyl) acetamide], for which the pIC50 was 7.85. For `COCCS(=O)(=O)C(C(=O)NCC(=O)NC1CC1)c1nc2cc(C(F)(F)F)c(-c3ccnn3C)cc2s1` (centres unmarked) [Example 162, N-[(cyclopropyl-carbamoyl)methyl]-2-(2-methoxyethane-sulfonyl)-2-[6-(1-methyl-1H-pyrazol-5-yl)-5-(trifluoromethyl)-1,3-benzothiazol-2-yl]acetamide] the value was 7.80. For `COCCS(=O)(=O)C(C(=O)NCC(=O)NC1CC1)c1nc2cc(C)c(-c3cnc(C4CC4)nc3)cc2s1` (centres unmarked) [Example 163, N-[(cyclopropyl-carbamoyl)methyl]-2-[6-(2-cyclopropyl-pyrimidin-5-yl)-5-methyl-1,3-benzothiazol-2-yl]-2-(2-methoxyethane-sulfonyl) acetamide] the value was 7.80. For `COCCS(=O)(=O)C(C(=O)NCC(=O)NC1CC1)c1nc2cc(C(F)(F)F)c(-c3ccc(C4CC4)nc3)cc2s1` (centres unmarked) [Example 164, N-[(cyclopropyl-carbamoyl)methyl]-2-[6-(6-cyclopropyl-pyridin-3-yl)-5-(trifluoromethyl)-1,3-benzothiazol-2-yl]-2-(2-methoxyethane-sulfonyl) acetamide] the value was 7.77; for `COCCS(=O)(=O)C(C(=O)NCC(=O)NC1CC1)c1nc2cc(C(F)(F)F)c(Br)cc2s1` (centres unmarked) [Example 165, 2-[6-bromo-5-(trifluoromethyl)-1,3-benzothiazol-2-yl]-N-[(cyclopropyl-carbamoyl)methyl]-2-(2-methoxyethane-sulfonyl) acetamide], 7.74; for `COCCS(=O)(=O)C(C(=O)NCC(=O)NC1CC1)c1nc2cc(C(F)(F)F)c(-c3ccc(C(=O)N4CCOCC4)cc3)cc2s1` (centres unmarked) [Example 166, N-[(cyclopropyl-carbamoyl)methyl]-2-(2-methoxyethane-sulfonyl)-2-{6-[4-(morpholine-4-arbonyl)phenyl]-5-(trifluoromethyl)-1,3-benzothiazol-2-yl}acetamide], 7.70.

As to `COCCS(=O)(=O)C(C(=O)NCC(=O)NC1CC1)c1nc2cc(F)c(-c3ccnn3C)cc2s1` (centres unmarked) [Example 167, N-[(cyclopropyl-carbamoyl)methyl]-2-[5-fluoro-6-(1-methyl-1H-pyrazol-5-yl)-1,3-benzothiazol-2-yl]-2-(2-methoxyethane-sulfonyl) acetamide], the negative logarithm of the IC50 (pIC50) is 7.64. The same measure for `CC(C)S(=O)(=O)C(C(=O)NCC(=O)NC1CC1)c1nc2cc(C(F)(F)F)c(-c3ccc(C(=O)N4CCOCC4)cc3)cc2s1` (centres unmarked) [Example 168, N-[(cyclopropyl-carbamoyl)methyl]-2-{6-[4-(morpholine-4-carbonyl)phenyl]-5-(trifluoromethyl)-1,3-benzothiazol-2-yl}-2-(propane-2-sulfonyl) acetamide]: 7.62; for `CC(C)S(=O)(=O)C(C(=O)NCC(=O)NC1CC1)c1nc2cc(C(F)(F)F)c(-c3ccccc3)cc2s1` (centres unmarked) [Example 169, N-[(cyclopropyl-carbamoyl)methyl]-2-[6-phenyl-5-(trifluoromethyl)-1,3-benzothiazol-2-yl]-2-(propane-2-sulfonyl) acetamide]: 7.59; for `CC(C)S(=O)(=O)C(C(=O)NCC(=O)NC1CC1)c1nc2cc(C(F)(F)F)c(-c3ccc(F)nc3)cc2s1` (centres unmarked) [Example 170, N-[(cyclopropyl-carbamoyl)methyl]-2-[6-(6-fluoropyridin-3-yl)-5-(trifluoromethyl)-1,3-benzothiazol-2-yl]-2-(propane-2-sulfonyl) acetamide]: 7.57. For `COCCS(=O)(=O)C(C(=O)NCC(=O)NC1CC1)c1nc2cc(F)c(-c3ccc(F)nc3)cc2s1` (centres unmarked) [Example 171, N-[(cyclopropyl-carbamoyl)methyl]-2-[5-fluoro-6-(6-fluoropyridin-3-yl)-1,3-benzothiazol-2-yl]-2-(2-methoxyethane-sulfonyl) acetamide] the value was 7.57; for `COCCS(=O)(=O)C(C(=O)NCC(=O)NC1CC1)c1nc2cc(C)c(-c3ccn(C)c(=O)c3)cc2s1` (centres unmarked) [Example 172, N-[(cyclopropyl-carbamoyl)methyl]-2-(2-methoxyethane-sulfonyl)-2-[5-methyl-6-(1-methyl-2-oxo-1,2-dihydropyridin-4-yl)-1,3-benzothiazol-2-yl]acetamide], 7.57; for `COCCS(=O)(=O)C(C(=O)NCC(=O)NC1CC1)c1nc2cc(C(F)(F)F)c(-c3ccc(F)nc3)cc2s1` (centres unmarked) [Example 173, N-[(cyclopropyl-carbamoyl)methyl]-2-[6-(6-fluoropyridin-3-yl)-5-(trifluoromethyl)-1,3-benzothiazol-2-yl]-2-(2-methoxyethane-sulfonyl) acetamide], 7.49.

With `COCCS(=O)(=O)C(C(=O)NCC(=O)NC1CC1)c1nc2cc(C)c(-c3cnc(C)nc3)cc2s1` (centres unmarked) [Example 174, N-[(cyclopropyl-carbamoyl)methyl]-2-(2-methoxyethane-sulfonyl)-2-[5-methyl-6-(2-methylpyrimidin-5-yl)-1,3-benzothiazol-2-yl]acetamide], the pIC50 is 7.46. The pIC50 values of the last two compounds are within 0.2 log units of each other.

`CC(C)S(=O)(=O)C(C(=O)NCC(=O)NC1CC1)c1nc2cc(C(F)(F)F)c(-c3cccc(C(=O)N(C)C)c3)cc2s1` (centres unmarked) [Example 175, 3-[2-({[(cyclopropyl-carbamoyl)methyl]carbamoyl} (propane-2-sulfonyl)methyl)-5-(trifluoromethyl)-1,3-benzothiazol-6-yl]-N,N-dimethyl-benzamide] had a negative logarithm of the IC50 (pIC50) of 7.43. The pIC50 values of the last two compounds are within 0.2 log units of each other. For `COCCS(=O)(=O)C(C(=O)NCC(=O)NC1CC1)c1nc2cc(C(F)(F)F)c(-c3ccn(C)c(=O)c3)cc2s1` (centres unmarked) [Example 176, N-[(cyclopropyl-carbamoyl)methyl]-2-(2-methoxyethane-sulfonyl)-2-[6-(1-methyl-2-oxo-1,2-dihydropyridin-4-yl)-5-(trifluoromethyl)-1,3-benzothiazol-2-yl]acetamide], the pIC50 was 7.43. Take `COCCS(=O)(=O)C(C(=O)NCC(=O)NC1CC1)c1nc2cc(F)c(-c3cccc(C(=O)N(C)C)c3)cc2s1` (centres unmarked) [Example 177, 3-[2-({[(cyclopropyl-carbamoyl)methyl]carbamoyl}(2-methoxyethane-sulfonyl)methyl)-5-fluoro-1,3-benzothiazol-6-yl]-N,N-dimethyl-benzamide]: the pIC50 was 7.29. For `COCCS(=O)(=O)C(C(=O)NCC(=O)NC1CC1)c1nc2cc(C(F)(F)F)c(-c3cnc(C)nc3)cc2s1` (centres unmarked) [Example 178, N-[(cyclopropyl-carbamoyl)methyl]-2-(2-methoxyethane-sulfonyl)-2-[6-(2-methylpyrimidin-5-yl)-5-(trifluoromethyl)-1,3-benzothiazol-2-yl]acetamide] the value was 7.25; for `CC(C)S(=O)(=O)C(C(=O)NCC(=O)NC1CC1)c1nc2cc(C(F)(F)F)c(Br)cc2s1` (centres unmarked) [Example 179, 2-[6-bromo-5-(trifluoromethyl)-1,3-benzothiazol-2-yl]-N-[(cyclopropyl-carbamoyl)methyl]-2-(propane-2-sulfonyl) acetamide], 7.09; for `CC(C)S(=O)(=O)C(C(=O)NCC(=O)NC1CC1)c1nc2cc(C(F)(F)F)c(-c3ccnn3C)cc2s1` (centres unmarked) [Example 180, N-[(cyclopropyl-carbamoyl)methyl]-2-[6-(1-methyl-1H-pyrazol-5-yl)-5-(trifluoromethyl)-1,3-benzothiazol-2-yl]-2-(propane-2-sulfonyl) acetamide], 7.06.

`COCCS(=O)(=O)C(C(=O)NCC(=O)NC1CC1)c1nc2cc(F)c(-c3cccc(F)n3)cc2s1` (centres unmarked) [Example 181, N-[(cyclopropyl-carbamoyl)methyl]-2-[5-fluoro-6-(6-fluoropyridin-2-yl)-1,3-benzothiazol-2-yl]-2-(2-methoxyethane-sulfonyl) acetamide] had a pIC50 of 6.84.

Turning to `COCCS(=O)(=O)C(C(=O)NCC(=O)NC1CC1)c1nc2cc(-c3ccc(F)nc3)c(C)cc2s1` (centres unmarked) [Example 182, N-[(cyclopropyl-carbamoyl)methyl]-2-[5-(6-fluoropyridin-3-yl)-6-methyl-1,3-benzothiazol-2-yl]-2-(2-methoxyethane-sulfonyl) acetamide], the negative-log IC50 (pIC50) is 7.68. This pIC50 is 0.84 log units higher than that of the compound before. For `COCCS(=O)(=O)C(C(=O)NCC(=O)NC1CC1)c1nc2cc(-c3cncnc3)c(C)cc2s1` (centres unmarked) [Example 183, N-[(cyclopropyl-carbamoyl)methyl]-2-(2-methoxyethane-sulfonyl)-2-[6-methyl-5-(pyrimidin-5-yl)-1,3-benzothiazol-2-yl]acetamide] the value was 7.41; for `COCCS(=O)(=O)C(C(=O)NCC(=O)NC1CC1)c1nc2cc(-c3cnc(C)nc3)c(C)cc2s1` (centres unmarked) [Example 184, N-[(cyclopropyl-carbamoyl)methyl]-2-(2-methoxyethane-sulfonyl)-2-[6-methyl-5-(2-methylpyrimidin-5-yl)-1,3-benzothiazol-2-yl]acetamide], 7.54; for `COCCS(=O)(=O)C(C(=O)NCC(=O)NC1CC1)c1nc2cc(C)c(-c3ccc(F)nc3)cc2s1` (centres unmarked) [Example 185, N-[(cyclopropyl-carbamoyl)methyl]-2-[6-(6-fluoropyridin-3-yl)-5-methyl-1,3-benzothiazol-2-yl]-2-(2-methoxyethane-sulfonyl) acetamide], 8.40.

For `COCCS(=O)(=O)C(C(=O)NCC(=O)NC1CC1)c1nc2cc(C)c(-c3cnnc(C)c3)cc2s1` (centres unmarked) [Example 186, N-[(cyclopropyl-carbamoyl)methyl]-2-(2-methoxyethane-sulfonyl)-2-[5-methyl-6-(6-methylpyridazin-4-yl)-1,3-benzothiazol-2-yl]acetamide], the pIC50 was 7.40.

These data come from patent US10173991B2, “Sulfone amide linked benzothiazole inhibitors of endothelial lipase” (BRISTOL-MYERS SQUIBB COMPANY, priority 2014, dated 2019).
